According to patent US7094420B2, “Methods of using isomer enriched conjugated linoleic acid compositions” (Natural ASA, priority 1998, dated 2006):

Assay: Mouse feeding trial of diets with different ratios and amounts of CLA isomers
Assay type: in vivo, ICR mice
Procedure: Based on the results of Example 1, the Inventors believe that the t10,c12 isomer is an active isomer.
The trial was conducted with 84 ICR mice purchased from Harlan Sprague Dawley (Madison, Wis.). The diets were blended using the basal diet, sugar, corn oil and one or a blend of isomers of conjugated linoleic acid (expressed as percent of diet). Each treatment consisted of 2 pens of 3 mice. Mice had food and water ad libitum. Food consumption was monitored daily and mice were weighed every other day when bedding was changed. At three weeks of feeding the diet, mice were euthanized by CO2 and final body weights were taken. Mice were then necropsied and fat pads were weighed. Mice were also analyzed for total body fat. Mice were freeze dried and ground. Duplicate samples were analyzed by proximate analysis (ether extraction, ash, kjeldahl, and moisture).

Row | Compound | improvement in growth (mice fed only c9,t11 CLA, no t10,c12 present, linear) [%] | growth, rate of gain, and feed conversion (mice receiving only c9,t11 CLA) | body fat compared to control mice (mice fed only t10,c12 CLA vs control mice not receiving CLA) | reduction in growth (mice fed t10,c12 isomer only) [%]
1 | CCCCCC/C=C/C=C\CCCCCCCC(=O)O [c9,t11 CLA, c9,t11 octadecadienoic acid] | 16 | increased growth, rate of gain, and feed conversion |  | 
2 | CCCCC/C=C\C=C\CCCCCCCCC(=O)O [t10,c12 CLA, t10,c12 octadecadienoic acid] |  |  | reduced body fat | 10
